These results are taken from EP0391644B1, “Aryl-substituted rhodanine derivatives” (ELI LILLY AND COMPANY, priority 1989, dated 1990).

For this test, the system named is adjuvant-induced arthritis. In words: Developing Adjuvant-Induced Arthritis Test in Rats. It is filed as in vivo, male Lewis-Wistar rats. The note with it: AUC of uninjected paw volumes, Days 16 through 30; for inhibition in vivo at 50 mg/kg / inhibition in vivo at 25 mg/kg: Rattus norvegicus, po, 720 h, read-out: % Inhibition of Uninjected Paw Volume Inflammation; for inhibition in vivo at 25 mg/kg: 25 mg/kg P.O. x 29.

Structures can show the parent of a compound that is named as a salt.

Take “5-{[3,5-bis(1,1-dimethylethyl)-4-hydroxyphenyl]methylene}-3-[2-(4-morpholinyl)ethyl]amino-4-thiazolidinone [Example 49]”: the “% Inhibition of Uninjected Paw Volume Inflammation” value (50 mg/kg P.O. x 29) is recorded as 36%.
With `CC(C)(C)c1cc(CC2SC(=S)NC2=O)cc(C(C)(C)C)c1O` (stereo not shown) [Example 8, 5-{[3,5-bis(1,1-dimethylethyl)-4-hydroxyphenyl]methyl}-2-thioxo-4-thiazolidinone], the inhibition in vivo at 50 mg/kg (50 mg/kg P.O. x 29) is 4%.
Same read-out and setting: next, `CN(C)N1C(=O)C(=Cc2cc(C(C)(C)C)c(O)c(C(C)(C)C)c2)SC1=S` [Example 19, 5-{[3,5-bis(1,1-dimethylethyl)-4-hydroxyphenyl]methylene}-3-dimethylamino-2-thioxo-4-thiazolidinone]: 20.7%; `CC(C)(C)c1cc(C=C2SCN(C3CC3)C2=O)cc(C(C)(C)C)c1O` [Example 20, 5-{[3,5-bis(1,1-dimethylethyl)-4-hydroxyphenyl]methylene}-3-cyclopropyl-4-thiazolidinone]: 36%.
Same read-out and setting: next, `C=CCN1CSC(=Cc2cc(C(C)(C)C)c(O)c(C(C)(C)C)c2)C1=O` [Example 24, 5-{[3,5-bis(1,1-dimethylethyl)-4-hydroxyphenyl]methylene}-3-(2-propenyl)-4-thiazolidinone]: 0%.
The same measure, in the same setting: the same measure for `CC(=C1SCN(C)C1=O)c1cc(C(C)(C)C)c(O)c(C(C)(C)C)c1` [Example 25, 5-{[3,5-bis(1,1-dimethylethyl)-4-hydroxyphenyl]methylmethylene}-3-methyl-4-thiazolidinone]: 8.5%; for `CC(C)(C)c1cc(C=C2SCN(CCN)C2=O)cc(C(C)(C)C)c1O` [Example 27, 5-{[3,5-bis(1,1-dimethylethyl)-4-hydroxyphenyl]methylene}-3-(2-aminoethyl)-4-thiazolidinone]: 40%; for `CN(C)CCN1CSC(=Cc2cc(C(C)(C)C)c(O)c(C(C)(C)C)c2)C1=O` [Example 29, 5-{[3,5-bis(1,1-dimethylethyl)-4-hydroxyphenyl]methylene}-3-[2-(dimethylamino)ethyl]-4-thiazolidinone]: 49%.
As for `CC(C)(C)c1cc(C=C2SCN(CCNCCO)C2=O)cc(C(C)(C)C)c1O` [Example 30, 5-{[3,5-bis(1,1-dimethylethyl)-4-hydroxyphenyl]methylene}-3-[2-(2-hydroxyethylamino)ethyl]-4-thiazolidinone], the inhibition in vivo at 50 mg/kg (50 mg/kg P.O. x 29) was determined as 44.1%.
Still for that read-out and setting: the same measure for `C#CCN(C)CCN1CSC(=Cc2cc(C(C)(C)C)c(O)c(C(C)(C)C)c2)C1=O` [Example 31, 5-{[3,5-bis(1,1-dimethylethyl)-4-hydroxyphenyl]methylene}-3-[2-(methyl-2-propynylamino)ethyl]-4-thiazolidinone]: 28.9%.
Take `CN(C)CCNCCN1CSC(=Cc2cc(C(C)(C)C)c(O)c(C(C)(C)C)c2)C1=O` [Example 32, 5-{[3,5-bis(1,1-dimethylethyl)-4-hydroxyphenyl]methylene}-3-{2-[[2-(dimethylamino)ethyl]amino]-ethyl}-4-thiazolidinone]: where the note is “50 mg/kg P.O. x 29”, the inhibition in vivo at 50 mg/kg was 48.6%.
Same read-out and setting: the same measure for `CC(C)(C)c1cc(C=C2SCN(CCNCc3ccccc3)C2=O)cc(C(C)(C)C)c1O` [Example 33, 5-{[3,5-bis(1,1-dimethylethyl)-4-hydroxyphenyl]methylene}-3-{2-[(phenylmethyl)amino]ethyl}-4-thiazolidinone hydrochloride]: 30.1%; for `CNCCCN1CSC(=Cc2cc(C(C)(C)C)c(O)c(C(C)(C)C)c2)C1=O` [Example 34, 5-{[3,5-bis(1,1-dimethylethyl)-4-hydroxyphenyl]methylene}-3-[3-(methylamino)propyl]-4-thiazolidinone]: 1.6%; for `CC(C)(C)c1cc(C=C2SCN(Cc3nnn[nH]3)C2=O)cc(C(C)(C)C)c1O` [Example 39, 5-{[3,5-bis(1,1-dimethylethyl)-4-hydroxyphenyl]methylene}-3-(1H-tetrazol-5-ylmethyl)-4-thiazolidinone]: 2%.
As for `CCN(C)N1CSC(=Cc2cc(C(C)(C)C)c(O)c(C(C)(C)C)c2)C1=O` [Example 40, 5-{[3,5-bis(1,1-dimethylethyl)-4-hydroxyphenyl]methylene}-3-(ethylmethylamino)-4-thiazolidinone], the inhibition in vivo at 50 mg/kg (50 mg/kg P.O. x 29) turned out to be 23%.
`CCCCN(C)N1CSC(=Cc2cc(C(C)(C)C)c(O)c(C(C)(C)C)c2)C1=O` [Example 41, 5-{[3,5-bis(1,1-dimethylethyl)-4-hydroxyphenyl]methylene}-3-(butylmethylamino)-4-thiazolidinone]: the inhibition in vivo at 50 mg/kg (50 mg/kg P.O. x 29) was 27%.
The same measure, in the same setting: next, `CN1CCN(N2CSC(=Cc3cc(C(C)(C)C)c(O)c(C(C)(C)C)c3)C2=O)CC1` [Example 43, 5-{[3,5-bis(1,1-dimethylethyl)-4-hydroxyphenyl]methylene}-3-(4-methyl-1-piperazinyl)-4-thiazolidinone]: 36%.
The same measure, in the same setting: the same measure for `CC(C)(C)c1cc(C=C2SCN(N3CCCCC3)C2=O)cc(C(C)(C)C)c1O` [Example 44, 5-{[3,5-bis(1,1-dimethylethyl)-4-hydroxyphenyl]methylene}-3-(1-piperidinyl)-4-thiazolidinone]: 15%.
Still for that read-out and setting: next, `CC(C)(C)c1cc(C=C2SCN(N3CCOCC3)C2=O)cc(C(C)(C)C)c1O` [Example 45, 5-{[3,5-bis(1,1-dimethylethyl)-4-hydroxyphenyl]methylene}-3-(4-morpholinyl)-4-thiazolidinone]: 36%; `CC(=C1SCN(N(C)C)C1=O)c1cc(C(C)(C)C)c(O)c(C(C)(C)C)c1` [Example 46, 5-{1-[3,5-bis(1,1-dimethylethyl)-4-hydroxyphenyl]methylmethylene}-3-(dimethylamino)-4-thiazolidinone]: 9%; `CNN1CSC(=Cc2cc(C(C)(C)C)c(O)c(C(C)(C)C)c2)C1=O` [Example 47, 5-{[3,5-bis(1,1-dimethylethyl)-4-hydroxyphenyl]methylene}-3-(methylamino)-4-thiazolidinone]: 69.3%.
`CC(C)(C)c1cc(C=C2SCN(N)C2=O)cc(C(C)(C)C)c1O` [Example 50, 3-amino-5-{[3,5-bis(1,1-dimethylethyl)-4-hydroxyphenyl]methylene}-4-thiazolidinone]: the inhibition in vivo at 50 mg/kg (50 mg/kg P.O. x 29) was determined as 62%.
Turning to `CCCNN1CSC(=Cc2cc(C(C)(C)C)c(O)c(C(C)(C)C)c2)C1=O` [Example 51, 5-{[3,5-bis(1,1-dimethylethyl)-4-hydroxyphenyl]methylene}-3-(propylamino)-4-thiazolidinone], the inhibition in vivo at 25 mg/kg was 39%.
Same read-out and setting: the same measure for `CCNN1CSC(=Cc2cc(C(C)(C)C)c(O)c(C(C)(C)C)c2)C1=O` [Example 52, 5-{[3,5-bis(1,1-dimethylethyl)-4-hydroxyphenyl]methylene}-3-(ethylamino)-4-thiazolidinone]: 45%.
As to `CCCNCCN1CSC(=Cc2cc(C(C)(C)C)c(O)c(C(C)(C)C)c2)C1=O` [Example 54, 5-{[3,5-bis(1,1-dimethylethyl)-4-hydroxyphenyl]methylene}-3-[2-(propylamino)ethyl]-4-thiazolidinone], the inhibition in vivo at 50 mg/kg (50 mg/kg P.O. x 29) turned out to be 37.6%.
